In test [1] the target is reverse transcriptase du HIV1 (Human immunodeficiency virus type 1 group M subtype B, UniProt P04585). Briefly: Reverse transcriptase activity of HIV1 incubated with NP derivatives, tested immediately. The following applies: témoin virus 11924. In kind it is biochemical. The method, then: (§1) La technique de culture et de titrage de la reverse-transcriptase du HIV est rappelée ci-après : Des lymphocytes humains, préalablement activés par la PHA (phytohémagglutinine) sont incubés dans un milieu nutritif (RPMI 1640 + sérum de veau foetal + antibiotiques + β-mercaptoéthanol 10⁻⁵M + 2»g/ml polybrene + sérum anti-interféron 1/2000 + IL2 10%). Après centrifugation, le culot cellulaire est mis en présence du HIV1 (10.000 cpm/10⁶ cellules) pendant 1 heure à 37°. Après lavage et centrifugation, les cellules sont resuspendues dans du milieu nutritif. Les surnageants de culture cellulaire sont suivis pendant plusieurs jours pour leur activité reverse transcriptase. Ils sont centrifugés 7 minutes à 95000 tours et le culot est lysé par du Triton® 0,1% (produit Touzart et Matignon). Un mélange réactionnel est ajouté (Tris, DTT (dithiothreitol), MgCl₂, KCl, PolyA, Oligo dT, ³HTTP, H₂O) et après 1 heure d'incubation à 37°C, la réaction est arrêtée avec du pyrophosphate de sodium et de l'acide nucléique de levure est ajouté pour aider la précipitation. De l'acide trichloracétique (TCA) est ajouté et la solution est laissée 15 minutes à 4°C. Après filtration sous vide avec des filtres millipores 0.45 »m et plusieurs lavages avec du TCA (0.5%), on procède au rinçage à l'éthanol, au sèchage en étuve 37° et enfin au comptage.
Le HIV1 est incubé 1 heure à 37° en présence d'AcN (D23, 621, N5-12), d'anticorps anti-NP (TNP11) ou en présence des dérivés NP (DNP-glycine et DNP-lysine). L'activité reverse transcriptase du HIV1 est testée immédiatement (cas des dérivés DNP-glycine et DNP-lysine). Alternativement, des lymphocytes humains sont infectés par le HIV1 préincubé avec les produits à tester, et la culture cellulaire est observée pendant 3 semaines par titrage de la reverse transcriptase. Durant cette période les cultures des lymphocytes humains ne contiennent pas d'anticorps ni d'antigène.

The subject of test [2] is HIV1. Briefly: HIV1 infection of human lymphocytes preincubated with antibodies or NP derivatives, reverse transcriptase in supernatants. Format: cell-based. The following applies: for activité reverse transcriptase (surnageants de culture): dérivés NP, concentration not given. The method, then: as §1
Les lymphocytes humains, préalablement activés par la PHA, sont incubés en présence des AcN, des anticorps anti-NP et des dérivés NP (DNP-glycine, DNP-lysine) pendant une nuit à 37°C. Le lendemain, le culot cellulaire est mis en présence du HIV1 pendant 1 heure à 37°C au bain-marie et les cellules sont resuspendues dans du milieu nutritif en présence des produits à tester. Les surnageants de culture sont testés pour l'activité reverse transcriptase pendant 3 semaines.

Regarding `N[C@@H](CCCCNc1ccc([N+](=O)[O-])cc1[N+](=O)[O-])C(=O)O` [DNP-lysine, DNP-Lysine], the Activité reverse transcriptase in test [1] (10^-3M) stood at 4652; in test [1] (10^-6M), 3932; in test [1] (10^-7M), 7240; in test [1] (10^-9M) it was 9262. Further, the “activité reverse transcriptase (surnageants de culture)” value in test [2] (3 jours après l'infection, témoin virus 562) was found to be 936; in test [2] (6 jours après l'infection, témoin virus 1274), 958; in test [2] (10 jours après l'infection, témoin virus 94474) it was 1102; in test [2] (13 jours après l'infection, témoin virus 63944), 1466; in test [2] (18 jours après l'infection, témoin virus 73368) it was 958; in test [2] (20 jours après l'infection, témoin virus 26840), 1268. Moreover, the “activité reverse transcriptase / infectivité virale par rapport au témoin virus (result in words)” value in test [2] (lymphocytes incubés avec les produits) is listed as “peuvent conduire à une inhibition totale de l'infectivité virale”.

Values taken from EP0316212B1 (priority 1987, dated 1989).
